Measured values: the supplement of paper PMC11451515

Columns and labels:
Settings in all cases: 48 h
NOMO1 [1] = test: cell viability relative to DMSO control; higher = less cytotoxic
Method in brief: (§1)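 NOMO1, SEM and P12-Ichikawa leukemia cells spent at least four passages adapting to each medium before use. They were seeded at 500 cells/well (NOMO1, SEM) or 1000 cells/well (P12-Ichikawa) in 5 μl in 1536-well plates and pin-dosed with library compounds in DMSO at 11 threefold steps from 47 μM down to 0.79 nM. After 48 h at 37°C, CellTiter-Glo One luminescence was read. Viability is reported as a percentage of the DMSO wells on each plate, with cell-free wells as background.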

P12-Ichikawa [2] = test: as above
Method in brief: as §1

SEM cells [3] = test: as above
Method in brief: as §1

NOMO1 [4] = test: AUC of viability dose-response curve (% viability x log10 dose units); higher = less sensitive
Method in brief: (§2)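 Library compounds in DMSO were applied for 48 h at 37°C at 11 threefold doses (47 μM to 0.79 nM) to medium-adapted leukemia cells in 1536-well plates holding 500 or 1000 cells/well. Luminescence from CellTiter-Glo One was normalised plate by plate against DMSO and cell-free wells. Area under the curve came from trapezoidal integration of a log-logistic fit, after scaling curves that rose above full viability and discarding those that failed quality control. The fit had four parameters and used log10 doses.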

P12-Ichikawa [5] = test: as above
Method in brief: as §2

SEM cells [6] = test: as above
Method in brief: as §2

NC(=O)c1ccc(N(C(N)=O)c2c(F)cccc2F)nc1-c1ccc(F)cc1F
cell viability [%]
Settings | NOMO1 [1] | P12-Ichikawa [2] | SEM cells [3]
HPLM + 10% dialyzed FBS, 0.000781 µM | 90 | 101 | 85.2
HPLM + 10% dialyzed FBS, 0.00234 µM | 103 | 101 | 81.2
HPLM + 10% dialyzed FBS, 0.00702 µM | 113 | 105 | 88.2
HPLM + 10% dialyzed FBS, 0.0211 µM | 104 | 101 | 79.5
HPLM + 10% dialyzed FBS, 0.0632 µM | 115 | 107 | 89.5
HPLM + 10% dialyzed FBS, 0.19 µM | 115 | 102 | 94
HPLM + 10% dialyzed FBS, 0.569 µM | 95.3 | 106 | 106
HPLM + 10% dialyzed FBS, 1.71 µM | 114 | 101 | 99.7
HPLM + 10% dialyzed FBS, 5.12 µM | 99.6 | 108 | 88.5
HPLM + 10% dialyzed FBS, 15.4 µM | 94.8 | 95.3 | 51.7
HPLM + 10% dialyzed FBS, 46.1 µM | 111 | 104 | 77.5
RPMI 5 mM glucose + 10% FBS, 0.000781 µM | 80.4 | 101 | 116
RPMI 5 mM glucose + 10% FBS, 0.00234 µM | 86.9 | 97.1 | 88.8
RPMI 5 mM glucose + 10% FBS, 0.00702 µM | 95.4 | 100 | 80.1
RPMI 5 mM glucose + 10% FBS, 0.0211 µM | 100 | 98.7 | 97.4
RPMI 5 mM glucose + 10% FBS, 0.0632 µM | 94.3 | 108 | 119
RPMI 5 mM glucose + 10% FBS, 0.19 µM | 93.8 | 94.7 | 95
RPMI 5 mM glucose + 10% FBS, 0.569 µM | 95.2 | 109 | 89
RPMI 5 mM glucose + 10% FBS, 1.71 µM | 105 | 95.6 | 104
RPMI 5 mM glucose + 10% FBS, 5.12 µM | 101 | 98.5 | 102
RPMI 5 mM glucose + 10% FBS, 15.4 µM | 84.9 | 88.7 | 52.3
RPMI 5 mM glucose + 10% FBS, 46.1 µM | 88 | 96.3 | 94.9
RPMI 5 mM glucose + 10% dialyzed FBS, 0.000781 µM | 78.2 | 94.9 | 87.6
RPMI 5 mM glucose + 10% dialyzed FBS, 0.00234 µM | 92.4 | 96.1 | 86.7
RPMI 5 mM glucose + 10% dialyzed FBS, 0.00702 µM | 91.1 | 99 | 89.4
RPMI 5 mM glucose + 10% dialyzed FBS, 0.0211 µM | 99.1 | 102 | 94.7
RPMI 5 mM glucose + 10% dialyzed FBS, 0.0632 µM | 85.4 | 100 | 93.2
RPMI 5 mM glucose + 10% dialyzed FBS, 0.19 µM | 91.6 | 92.1 | 94.9
RPMI 5 mM glucose + 10% dialyzed FBS, 0.569 µM | 95 | 91 | 88.3
RPMI 5 mM glucose + 10% dialyzed FBS, 1.71 µM | 87.4 | 92.7 | 100
RPMI 5 mM glucose + 10% dialyzed FBS, 5.12 µM | 93.6 | 91.2 | 92.1
RPMI 5 mM glucose + 10% dialyzed FBS, 15.4 µM | 80.4 | 87.5 | 41.1
RPMI 5 mM glucose + 10% dialyzed FBS, 46.1 µM | 94.3 | 88.6 | 66.8

AUC of viability dose-response curve
Settings | NOMO1 [4] | P12-Ichikawa [5] | SEM cells [6]
HPLM + 10% dialyzed FBS | 472 | 476 | 412
RPMI 5 mM glucose + 10% FBS | 447 | 468 | 454
RPMI 5 mM glucose + 10% dialyzed FBS | 429 | 449 | 411

CC(C)OC(=O)[C@H](C)N[P@](=O)(OC[C@H]1O[C@@H](N2\C=C/C(=O)NC2=O)[C@](C)(F)[C@@H]1O)OC3=CC=CC=C3
cell viability [%]
Settings | NOMO1 [1] | P12-Ichikawa [2] | SEM cells [3]
HPLM + 10% dialyzed FBS, 0.000781 µM | 115 | 104 | 105
HPLM + 10% dialyzed FBS, 0.00234 µM | 125 | 111 | 111
HPLM + 10% dialyzed FBS, 0.00702 µM | 119 | 117 | 122
HPLM + 10% dialyzed FBS, 0.0211 µM | 122 | 110 | 120
HPLM + 10% dialyzed FBS, 0.0632 µM | 127 | 102 | 99.4
HPLM + 10% dialyzed FBS, 0.19 µM | 131 | 108 | 131
HPLM + 10% dialyzed FBS, 0.569 µM | 87.5 | 94.3 | 106
HPLM + 10% dialyzed FBS, 1.71 µM | 91 | 41.5 | 98.4
HPLM + 10% dialyzed FBS, 5.12 µM | 40.5 | 8.75 | 57.7
HPLM + 10% dialyzed FBS, 15.4 µM | 34.3 | 6.42 | 17.6
HPLM + 10% dialyzed FBS, 46.1 µM | 40.8 | 9.25 | 18.5
RPMI 5 mM glucose + 10% FBS, 0.000781 µM | 101 | 113 | 125
RPMI 5 mM glucose + 10% FBS, 0.00234 µM | 99.8 | 99 | 120
RPMI 5 mM glucose + 10% FBS, 0.00702 µM | 116 | 124 | 130
RPMI 5 mM glucose + 10% FBS, 0.0211 µM | 98.4 | 109 | 122
RPMI 5 mM glucose + 10% FBS, 0.0632 µM | 107 | 112 | 121
RPMI 5 mM glucose + 10% FBS, 0.19 µM | 99.9 | 101 | 125
RPMI 5 mM glucose + 10% FBS, 0.569 µM | 95.7 | 110 | 125
RPMI 5 mM glucose + 10% FBS, 1.71 µM | 98 | 98.1 | 120
RPMI 5 mM glucose + 10% FBS, 5.12 µM | 87.3 | 69.3 | 88.1
RPMI 5 mM glucose + 10% FBS, 15.4 µM | 17.5 | 7.18 | 14.3
RPMI 5 mM glucose + 10% FBS, 46.1 µM | 19 | 5.81 | 9.48
RPMI 5 mM glucose + 10% dialyzed FBS, 0.000781 µM | 101 | 96.2 | 101
RPMI 5 mM glucose + 10% dialyzed FBS, 0.00234 µM | 110 | 105 | 109
RPMI 5 mM glucose + 10% dialyzed FBS, 0.00702 µM | 115 | 106 | 106
RPMI 5 mM glucose + 10% dialyzed FBS, 0.0211 µM | 130 | 103 | 120
RPMI 5 mM glucose + 10% dialyzed FBS, 0.0632 µM | 114 | 102 | 111
RPMI 5 mM glucose + 10% dialyzed FBS, 0.19 µM | 100 | 102 | 115
RPMI 5 mM glucose + 10% dialyzed FBS, 0.569 µM | 99.8 | 101 | 107
RPMI 5 mM glucose + 10% dialyzed FBS, 1.71 µM | 101 | 93.1 | 105
RPMI 5 mM glucose + 10% dialyzed FBS, 5.12 µM | 81.3 | 49.8 | 86.8
RPMI 5 mM glucose + 10% dialyzed FBS, 15.4 µM | 23.7 | 12 | 17.3
RPMI 5 mM glucose + 10% dialyzed FBS, 46.1 µM | 24.1 | 11.3 | 9.7

AUC of viability dose-response curve
Settings | NOMO1 [4] | P12-Ichikawa [5] | SEM cells [6]
HPLM + 10% dialyzed FBS | 372 | 331 | 387
RPMI 5 mM glucose + 10% FBS | 412 | 391 | 399
RPMI 5 mM glucose + 10% dialyzed FBS | 409 | 385 | 405
